Measurements: ChEMBL document CHEMBL1201862, “PubChem BioAssay data set” (2004)
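Results reflect a 48-hour exposure of cells in 96-well plates to compound at five concentrations. At the GI50, growth is halved.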 Calls of active or inactive are those of the source. Cut-off read from the data, not from the text of the source: active = GI50 up to about 1.1 µM and inactive = higher.

Experiments:
Test in all cases: growth of human tumour cells (NCI), 48 h
UACC-62 = test system: UACC-62
SK-MEL-28 = test system: SK-MEL-28
786-0 = test system: 786-0
CAKI-1 = test system: CAKI-1
M14 = test system: M14
COLO 205 = test system: COLO 205
K562 = test system: K562
SN12C = test system: SN12C
NCI-H23 = test system: NCI-H23
IGROV-1 = test system: IGROV-1
HT-29 = test system: HT-29
SF-295 = test system: SF-295
OVCAR-5 = test system: OVCAR-5
HCT-116 = test system: HCT-116
NCI-H226 = test system: NCI-H226
SK-MEL-2 = test system: SK-MEL-2
ACHN = test system: ACHN
UO-31 = test system: UO-31
OVCAR-3 = test system: OVCAR-3
SF-539 = test system: SF-539

Measured: GI50

COC(=O)CSc1nc2[nH]c(SC)c(C(N)=O)c2c(=O)n1-c1ccccc1
inactive: UACC-62 > 10 µM | SK-MEL-28 > 10 µM | 786-0 > 10 µM | CAKI-1 > 10 µM | M14 > 10 µM | COLO 205 > 10 µM | K562 > 10 µM | SN12C > 10 µM | NCI-H23 > 10 µM | IGROV-1 > 10 µM | HT-29 > 10 µM | SF-295 > 10 µM

C=CC1(c2ccc3ccccc3c2)OCC(CC)O1 (stereo not drawn)
inactive: OVCAR-5 48.9 µM | UACC-62 13.6 µM | SK-MEL-28 > 100 µM | 786-0 85.9 µM | M14 61.1 µM | COLO 205 36.1 µM | K562 13.9 µM | SN12C 36.7 µM | HCT-116 40.9 µM | NCI-H226 25.5 µM | NCI-H23 32.3 µM | SK-MEL-2 15.6 µM | IGROV-1 33.9 µM | ACHN 66.1 µM | UO-31 63.5 µM | HT-29 29.6 µM | OVCAR-3 47 µM | SF-295 61.5 µM

CC[C@@H]1CN2CCC1C[C@@H]2C(O)c1ccnc2ccc(OCCN3CCN(CCOc4ccc5nccc(C(O)[C@@H]6C[C@@H]7CCN6C[C@@H]7CC)c5c4)CC3)cc12 (stereo partly drawn)
inactive: OVCAR-5 18.6 µM | UACC-62 16.1 µM | SK-MEL-28 17.1 µM | 786-0 13.4 µM | CAKI-1 17.9 µM | M14 12.8 µM | COLO 205 14.7 µM | K562 2.63 µM | SN12C 14.3 µM | HCT-116 14.2 µM | NCI-H23 20.7 µM | SF-539 13.8 µM | SK-MEL-2 19.9 µM | IGROV-1 13.9 µM | ACHN 15.1 µM | HT-29 15.7 µM | OVCAR-3 19.6 µM | SF-295 16.3 µM

ClCCCN1CCCCC1CCl (stereo not drawn)
inactive: OVCAR-5 > 100 µM | UACC-62 43.7 µM | SK-MEL-28 > 100 µM | 786-0 72.1 µM | CAKI-1 26.7 µM | M14 > 100 µM | COLO 205 > 100 µM | K562 > 100 µM | SN12C > 100 µM | HCT-116 > 100 µM | NCI-H23 65.3 µM | SF-539 > 100 µM | SK-MEL-2 > 100 µM | IGROV-1 > 100 µM | ACHN 48.6 µM | UO-31 92.7 µM | HT-29 > 100 µM | OVCAR-3 > 100 µM | SF-295 70.1 µM

O[C@]12c3ccccc3C1CCCCC2N1CCOCC1 (stereo partly drawn)
inactive: UACC-62 > 100 µM | SK-MEL-28 > 100 µM | 786-0 > 100 µM | M14 > 100 µM | COLO 205 > 100 µM | K562 > 100 µM | SN12C > 100 µM | HCT-116 > 100 µM | NCI-H226 > 100 µM | NCI-H23 > 100 µM | SK-MEL-2 > 100 µM | ACHN > 100 µM | UO-31 > 100 µM | HT-29 > 100 µM | SF-295 > 100 µM

C#CC(O)(c1nc2ccccc2s1)c1nc2ccccc2s1
inactive: OVCAR-5 23.6 µM | UACC-62 12.3 µM | SK-MEL-28 40.7 µM | 786-0 18.5 µM | CAKI-1 23.5 µM | M14 15.5 µM | COLO 205 17.7 µM | K562 45.7 µM | SN12C 17.8 µM | HCT-116 16.3 µM | NCI-H23 20.3 µM | SF-539 17.4 µM | SK-MEL-2 16.7 µM | IGROV-1 15.2 µM | ACHN 23 µM | UO-31 15 µM | HT-29 27.2 µM | OVCAR-3 18.1 µM | SF-295 24 µM

CCCc1c(-c2ccccc2)[nH]c2ccccc2c1=O
inactive: OVCAR-5 45 µM | UACC-62 40.5 µM | SK-MEL-28 33.7 µM | M14 36.2 µM | COLO 205 > 100 µM | K562 20.8 µM | SN12C 89.1 µM | HCT-116 24.3 µM | NCI-H226 > 100 µM | NCI-H23 > 100 µM | SF-539 33.8 µM | SK-MEL-2 27.2 µM | IGROV-1 > 100 µM | ACHN 34.8 µM | UO-31 19.2 µM | HT-29 22.6 µM | OVCAR-3 31.5 µM | SF-295 > 100 µM

COC(=O)C1CC2(CC3=C1CCCC3)OCCO2 (stereo not drawn)
inactive: UACC-62 > 100 µM | SK-MEL-28 > 100 µM | 786-0 > 100 µM | CAKI-1 > 100 µM | M14 > 100 µM | COLO 205 > 100 µM | K562 > 100 µM | SN12C > 100 µM | HCT-116 > 100 µM | NCI-H23 > 100 µM | SF-539 > 100 µM | SK-MEL-2 > 100 µM | IGROV-1 > 100 µM | UO-31 > 100 µM | HT-29 > 100 µM | OVCAR-3 > 100 µM | SF-295 > 100 µM

COc1cc2c(cc1OC)[C@@H]1[C@H](C#N)C(=O)C(C)(C)N1CC2
inactive: OVCAR-5 > 100 µM | UACC-62 > 100 µM | SK-MEL-28 > 100 µM | 786-0 > 100 µM | CAKI-1 > 100 µM | M14 > 100 µM | COLO 205 > 100 µM | K562 > 100 µM | SN12C > 100 µM | HCT-116 > 100 µM | NCI-H226 > 100 µM | NCI-H23 > 100 µM | IGROV-1 > 100 µM | ACHN > 100 µM | UO-31 > 100 µM | HT-29 > 100 µM | OVCAR-3 > 100 µM | SF-295 > 100 µM

CC1=N/C(=C\c2ccc([N+](=O)[O-])cc2)C(=O)O1
inactive: OVCAR-5 > 100 µM | UACC-62 > 100 µM | SK-MEL-28 > 100 µM | 786-0 > 100 µM | M14 > 100 µM | COLO 205 > 100 µM | K562 > 100 µM | SN12C > 100 µM | HCT-116 > 100 µM | NCI-H23 > 100 µM | SF-539 > 100 µM | SK-MEL-2 > 100 µM | IGROV-1 > 100 µM | ACHN > 100 µM | UO-31 > 100 µM | HT-29 > 100 µM | OVCAR-3 > 100 µM | SF-295 > 100 µM

CCOC(=O)C1=C(c2ccccc2)N(C(C)=O)Cc2ccccc21
inactive: OVCAR-5 21.7 µM | UACC-62 12.2 µM | SK-MEL-28 16.8 µM | 786-0 28.1 µM | M14 18.5 µM | COLO 205 15.9 µM | K562 14.5 µM | SN12C 21.9 µM | HCT-116 14.5 µM | NCI-H226 14.9 µM | NCI-H23 12.6 µM | SF-539 16.3 µM | SK-MEL-2 17.5 µM | IGROV-1 23.6 µM | ACHN 16.1 µM | UO-31 18.1 µM | HT-29 16.3 µM | OVCAR-3 18.6 µM | SF-295 13.9 µM

C1=C2C3=[N+](CCCCC3)CC2Cc2ccsc21 (stereo not drawn)
inactive: OVCAR-5 > 100 µM | UACC-62 > 100 µM | SK-MEL-28 > 100 µM | 786-0 > 100 µM | CAKI-1 > 100 µM | M14 > 100 µM | COLO 205 40.6 µM | K562 > 100 µM | SN12C 67.9 µM | HCT-116 > 100 µM | NCI-H226 > 100 µM | NCI-H23 49.9 µM | SK-MEL-2 > 100 µM | IGROV-1 > 100 µM | ACHN > 100 µM | UO-31 > 100 µM | HT-29 32.8 µM | OVCAR-3 56.5 µM | SF-295 44.3 µM

COC1=C(OC)C(=O)c2cc(SC)c(=O)c(SC)cc2C1=O
inactive: UACC-62 2.12 µM | SK-MEL-28 13.5 µM | 786-0 17.3 µM | CAKI-1 72.4 µM | M14 17.2 µM | COLO 205 > 100 µM | K562 15.9 µM | SN12C 14.7 µM | HCT-116 20 µM | NCI-H226 13.5 µM | NCI-H23 5.75 µM | SF-539 12.1 µM | SK-MEL-2 3.85 µM | IGROV-1 33.1 µM | ACHN 12.8 µM | UO-31 19.8 µM | HT-29 > 100 µM | OVCAR-3 8.93 µM | SF-295 15.7 µM

COc1ccc(C(O)/C(=N\NC(N)=S)c2nc3ccc([N+](=O)[O-])cc3nc2O)cc1OC (stereo not drawn)
inactive: OVCAR-5 > 100 µM | UACC-62 > 100 µM | SK-MEL-28 > 100 µM | 786-0 > 100 µM | M14 > 100 µM | COLO 205 > 100 µM | K562 > 100 µM | NCI-H226 > 100 µM | NCI-H23 > 100 µM | SK-MEL-2 > 100 µM | IGROV-1 > 100 µM | ACHN > 100 µM | UO-31 > 100 µM | HT-29 > 100 µM | SF-295 > 100 µM

NC1c2ccccc2Nc2ccccc21
inactive: OVCAR-5 5.04 µM | UACC-62 4.26 µM | SK-MEL-28 3.54 µM | 786-0 3.84 µM | CAKI-1 3.63 µM | M14 3.92 µM | COLO 205 2.21 µM | K562 3.54 µM | SN12C 4.53 µM | HCT-116 3.23 µM | NCI-H226 9.1 µM | NCI-H23 4.74 µM | SK-MEL-2 13.2 µM | IGROV-1 2.95 µM | ACHN 4.9 µM | UO-31 3.27 µM | HT-29 4.08 µM | OVCAR-3 6.08 µM | SF-295 4.49 µM

Cc1cc(C)c(NC(=O)/C=C/c2ccccc2)c(C)c1
inactive: OVCAR-5 > 100 µM | UACC-62 22.9 µM | SK-MEL-28 > 100 µM | M14 > 100 µM | K562 32.6 µM | NCI-H226 > 100 µM | NCI-H23 > 100 µM | SF-539 59 µM | SK-MEL-2 > 100 µM | IGROV-1 > 100 µM | ACHN 80.2 µM | UO-31 > 100 µM | HT-29 > 100 µM | OVCAR-3 > 100 µM | SF-295 87.1 µM
